Reference: article PMC7699649 (Communications Biology, 2020)
Non-standard residues stand in square brackets, D forms with d. Residues, ends and D or L forms follow the SMILES beside them.

How the values were obtained:
TNFα = assay: Murine EMRSA-15 lung infection model: BAL cytokine ELISA; assay type: in vivo, C57Bl6J mice; conditions: vancomycin or D-pleurocidin-KR i.v., 48 h
[1] = Maximum tolerated dose (MTD) study, i.v.; assay type: in vivo; conditions: ICR mice
Text: SI Figures: Why are there 6 different Figure 3s with separate legends? Within the 4th - 6th Figure 3’s, what are the 4 different graphs for each of A, B, and C? […] Figure 16, 19 and 24 […]
have unreadable components due to overlap of text.
Each panel that constitutes “Secondary structure analysis of pleurocidin peptides from MD simulations” and, as such, is the same data but analysed in different ways. For this reason, we considered it appropriate to consider these all as one figure. However, to provide further clarity we have renumbered the supplementary figures and added further detail to the legends. The DISICL analysis is presented with a separate panel for each peptide. This has been clarified in the figure legend.
The overlap in the metabolite annotation in Volcano plots is a challenge for those metabolites that do not change much or where there is low significance as they all cluster in the same place. Since they are below the significance threshold, we have elected to remove these labels. […]
unethical to perform dose-ranging experiments to confirm this. Instead our experimental design was […]
As mentioned above however, we […]
systemic delivery of AMPs will never be possible due to insufficient therapeutic index. There is a marginal therapeutic index provided based on mammalian cell toxicity (up to 12-fold), but many existing in vitro studies of AMPs have shown greater selectivity. […]

IL-6 = assay: Murine EMRSA-15 lung infection model: BAL cytokine ELISA; assay type: in vivo, C57Bl6J mice; conditions: 600 mg/kg vancomycin or D-pleurocidin-KR (also lowest dose 0.15 mg/kg) i.v., 48 h
HEK293 = assay type: cell-based, human; conditions: XTT, 24 h with peptide, OD475; Eagle's Minimum Essential Media, 10% FBS; average and standard error of three biological replicates
Experimental: HeLa and HEK293 cell lines were purchased from ECACC and cultured in Eagle’s Minimum Essential Media containing glutamine, supplemented with 10% FBS and 1X non-essential amino acids. A549 and Calu-3 cell lines were purchased from ATCC. […] Cytotoxicity was measured by incubating starter cultures of cells for 24 h in a 96 well plate, gently removing the supernatant and replacing it with dilutions of peptides and controls, incubating for a further 24 h and then staining of the cells with the second-generation tetrazolium dye, XTT.

[2] = system: EMR Staphylococcus aureus-15 NCTC 13616; conditions: RPMI supplemented with 5% FBS (value in parentheses); twofold broth microdilution, 20 h 37 C, OD600; modal MIC, at least three biological replicates
Experimental: The antibacterial activity of the peptides was assessed through a modified twofold broth microdilution assay with modal MICs generated from at least three biological replicate experiments[20],[25]. The method broadly followed EUCAST methodology, with non-cation-adjusted Mueller Hinton or RPMI replacing cation-adjusted Mueller Hinton. Peptides and antibiotics were diluted in a twofold dilution in media down a 96 well plate. Bacteria were then added, back-diluted from an overnight culture, at a starting concentration of 5 × 10^5 CFU/ml. Plates were incubated, static at 37 C, for 20 h and the OD600 was determined using a Clariostar plate reader (BMG Labtech). […] Synergy was measured using standard microdilution checkerboard assays under the same conditions as the MICs[54]. Twofold dilution series of each peptide or antibiotic were prepared in separate 96 well plates and then combined into one before addition of bacteria. The growth/no growth interface was determined using the same definition as the MIC. The fractional inhibitory concentration was calculated from the most synergistic well on the plate for three independent repeats, and presented as the average +/− standard deviation. FIC is calculated as (MIC of compound A in combination with B/MIC of compound A alone) + (MIC of compound B in combination with A/MIC of compound B alone). MICs were determined on the same plates as the FICs to increase reproducibility.

EMRSA-15 = assay: Murine EMRSA-15 lung infection model: lung CFU; assay type: in vivo, C57Bl6J mice
Text: CFUs were quantified in lung homogenates.

KC = assay: Murine EMRSA-15 lung infection model: BAL cytokine ELISA; assay type: in vivo, C57Bl6J mice; conditions: 600 mg/kg vancomycin or the two higher D-pleurocidin-KR doses (15, 1.5 mg/kg) i.v., 48 h
BAL cells = assay: Murine EMRSA-15 lung infection model: BAL total and differential cell count; assay type: in vivo, C57Bl6J mice; conditions: 48 h
Experimental: Using the recently developed method[65], an overnight culture of EMRSA-15 was prepared in tryptic soy broth (TSB). EMRSA-15 was cultured in TSB overnight at 37 °C, adjusted to a starting OD600 of 0.025, and grown for additional 4 h for agar beads preparation. EMRSA-15 was embedded into agar beads by mixing the overnight culture with molten tryptic soy agar, which was then spun into warmed mineral oil. The preparation was cooled and centrifuged at 2700 × g, the remaining oil was eliminated, and the beads were washed in sterile PBS. The CFU content of the beads slurry was subsequently quantified on TSA plates and the beads slurry then diluted to 2 × 10^7 CFU/ml in sterile PBS to deliver a final dose of 1 × 10^6 CFU/mouse. Animal work was performed in accordance with the Animals (Scientific Procedures) Act of 1986 (United Kingdom) and 2012 revisions with local ethical approval of King’s College London. On day 0, male C57Bl6J mice (8–10 weeks, Charles River) were anaesthetised under Isoflurane and 50 µl inoculum of EMRSA-15 embedded in agar beads (10^6 CFU/mouse) was instilled directly into the respiratory tract via oropharyngeal dosing (o.a.). Sham control mice were inoculated with sterile PBS agar beads. […] Body weight was measured daily, and animals monitored at regular intervals for signs of pain and distress. After 48 h of pulmonary infection, animals were terminally euthanized using 25% urethane via intra-peritoneal injection. CFUs were quantified in lung homogenates. Lung homogenates were then centrifuged at 14000 rpm for 30 min at 4 °C and the supernatants were stored at −80 °C for future analysis. For BAL fluid collection and analysis (total and differential cell count), a 22-gauge catheter was inserted into the trachea and BAL was recovered by instillation of 0.5 ml of sterile PBS three times and total cells counts were performed by adding Turks stain in a 1:1 ratio. BAL fluid was then centrifuged, and supernatants were stored at −20 °C. Total levels of TNFα, IL-6, KC and MCP-1 were quantified from BAL fluid collected from all animals and measured by ELISA according to the manufacturer protocol (R&D Systems UK). Concentrations of all mediators were then normalised to total protein content of BAL fluid quantified via bicinchoninic acid total protein assays performed to manufacturers protocols (Thermofisher Scientific). […] Statistical analysis was by one-way ANOVA with Dunnett’s multiple comparisons test.

With `CC(C)C[C@@H](NC(=O)[C@@H](Cc1ccc(O)cc1)NC(=O)[C@@H](Cc1c[nH]cn1)NC(=O)[C@H](NC(=O)[C@@H](CC(C)C)NC(=O)[C@@H](C)NC(=O)[C@@H](C)NC(=O)[C@@H](CCCNC(=N)N)NC(=O)CNC(=O)[C@H](NC(=O)[C@@H](Cc1c[nH]cn1)NC(=O)[C@@H](CCCNC(=N)N)NC(=O)CNC(=O)[C@H](NC(=O)[C@@H](Cc1c[nH]cn1)NC(=O)[C@@H](C)NC(=O)[C@@H](C)NC(=O)[C@@H](CCCNC(=N)N)NC(=O)[C@@H](CCCNC(=N)N)NC(=O)[C@@H](Cc1ccccc1)NC(=O)[C@@H](Cc1ccccc1)NC(=O)[C@@H](CO)NC(=O)CNC(=O)[C@@H](Cc1c[nH]c2ccccc12)NC(=O)CN)C(C)C)C(C)C)[C@H](C)O)C(N)=O` [D-pleurocidin-KR] (H-G[dW]G[dS][dF][dF][dR][dR][dA][dA][dH][dV]G[dR][dH][dV]G[dR][dA][dA][dL][dT][dH][dY][dL]-NH2; N-terminus assumed) the “levels of TNFα in BAL” value (TNFα) was “No effects”, the “dose tolerated when administered i.v.” value [1] was 15 mg/kg/24 h and the “IL-6 in BAL” value (IL-6) was “reduced”. For the same compound, the “Toxicity HEK293 (EC50 / IC50)” value (HEK293) was “(36.4 ± 4.3) µg/ml”, the “MIC, peptide concentration” value [2] was 0.5 µg/mL and the “reduction in lung CFU” value (EMRSA-15; cumulative 1.5 mg/kg/48 h i.v. (three doses at 4, 24, 30 h post infection)) was 0.9 log10. The “reduction in lung CFU” value (EMRSA-15; cumulative 15 mg/kg/48 h i.v. (three doses at 4, 24, 30 h post infection)) was 1.1 log10, the “reduction in lung CFU” value (EMRSA-15; lowest dose, cumulative 0.15 mg/kg i.v., 48 h) was “did not cause a significant reduction” and the “KC levels in BAL” value (KC) was “fall to that of the uninfected group”. The “neutrophil recruitment (BAL)” value (BAL cells; 600 mg/kg vancomycin or D-pleurocidin-KR (also lowest dose 0.15 mg/kg) i.v.) was “reduced” and the “macrophage numbers in BAL” value (BAL cells; vancomycin or D-pleurocidin-KR i.v.) was “No effects”.
